As usually defined, the EC50 is the midpoint of the concentration-response curve.

One data set concerns HCV. To be noted: cited from earlier work.
For data set [1], the system named is genotype 1b (Con-1) HCV replicon. Description: HCV replicon luciferase assay, genotype 1b. It counts as cell-based. As to conditions: Hepatitis C virus, Huh-7, 72 h, Huh-7 cells with genotype 1b HCV replicon, Renilla luciferase, 3 days incubation. On the procedure:
The cell lines used to evaluate compounds consist of a human hepatocyte derived cell line (Huh-7) that constitutively expresses a genotype 1b (Con-1) HCV replicon or a genotype 1b (Con-1) HCV replicon with an asparagine replacing the cysteine at amino acid 316, or a genotype 2a (JFH-1) replicon, containing a Renilla luciferase reporter gene. These cells were maintained in Dulbecco's modified Eagle medium (DMEM) containing 10% FBS, 100 U/mL penicillin/streptomycin and 1.0 mg/mL G418.
To evaluate compound efficacy, titrated compounds were transferred to sterile 384-well tissue culture treated plates, and the plates were seeded with HCV replicon cells (50 μL at a density of 2.4×10^3 cells/well) in DMEM containing 4% FBS (final DMSO concentration at 0.5%). After 3 days incubation at 37° C., cells were analyzed for Renilla Luciferase activity using the EnduRen substrate (Promega cat #E6485) according to the manufacturer's directions. Briefly, the EnduRen substrate was diluted in DMEM and then added to the plates to a final concentration of 7.5 μM. The plates were incubated for at least 1 h at 37° C. then read on a Viewlux Imager (PerkinElmer) using a luminescence program. The 50% effective concentration (EC50) was calculated using the four-parameter logistic formula noted above.

Take alpha-interferon and ribavirin: the sustained efficacy in the data set with HCV (patients, combination therapy) was 40 % of patients.
Consider `CNC(=O)c1c(-c2ccc(F)cc2)oc2cc(N(CCO)S(C)(=O)=O)c(C3CC3)cc12` [HCV-796], for which the hepatic toxicity result in the data set on HCV (extended dosing of the combination regimens) is “hepatic toxicity observed”.
On to `CNC(=O)c1c(-c2ccc(F)cc2)oc2c1cc(-c1cccc(C(=O)NCC(C)(F)F)c1)c1[nH]ccc12` [Compound 4005], for which the EC50 in data set [1] (class symbol) is 0.1 to 1 µM; in data set [1] (numeric value), 0.15 µM.
With pegylated alpha-interferon, the “efficacy as monotherapy compared with unmodified alpha-interferon” value with HCV (recent clinical results, monotherapy) is “superior to unmodified alpha-interferon”.
As for `CNC(=O)c1c(-c2ccc(F)cc2)oc2c1cc(-c1cccc(C(=O)NC(C)(C)C)c1)c1[nH]c(C)cc12` [Compound 1008], the EC50 in data set [1] (class symbol) fell in the range of 0.1 to 1 µM.
The same measure, in the same setting: as for `CNC(=O)c1c(-c2ccc(F)cc2)oc2c1cc(-c1cccc(C(=O)NC(C)(C)C)c1)c1c2ccn1S(C)(=O)=O` [Compound 5002], the figure is < 0.1 µM.
For the molecule `CNC(=O)c1c(-c2ccc(F)cc2)oc2c1cc(-c1cccc(C(=O)NC(C)(C)C)c1)c1[nH]cc(C(=O)C(=O)OC)c12` [Compound 2003, methyl 2-(5-(3-(tert-butylcarbamoyl)phenyl)-2-(4-fluorophenyl)-3-(methylcarbamoyl)-6H-furo[2,3-e]indol-8-yl)-2-oxoacetate], the EC50 in data set [1] (class symbol) is 0.1 to 1 µM; in data set [1] (numeric value), 0.44 µM.
As to `CNC(=O)c1c(-c2ccc(F)cc2)oc2c1cc(-c1cccc(C(=O)NC34CC(C3)C4)c1)c1[nH]ccc12` [Compound 4002], in data set [1] (class symbol), the 50% effective concentration (EC50) is < 0.1 µM.
In the case of `CNC(=O)c1c(-c2ccc(F)cc2)oc2c1cc(-c1cccc(C(=O)NCC(F)(F)c3ccccn3)c1)c1[nH]ccc12` [Compound 4020], the EC50 in data set [1] (class symbol) was 0.1 to 1 µM.
Same read-out and setting: as for `CCN(C)C(=O)c1c(-c2ccc(F)cc2)oc2c1cc(OC(C)C)c1c2ccn1CC` [Compound 6004], the figure is > 1 µM.

The values above are taken from patent publication US9914739B2, “6H-furo[2,3-E]indole compounds for the treatment of hepatitis C” (BRISTOL-MYERS SQUIBB COMPANY, priority 2014, dated 2018).
